Experimental data published in US20140187548A1, “6 SUBSTITUTED IMIDAZOPYRAZINES FOR USE AS MPS-1 AND TKK INHIBITORS IN THE TREATMENT OF HYPERPROLIFERATIVE DISORDERS” (BAYER INTELLECTUAL PROPERTY GMBH, priority 2010, published 2014).
pIC50: −log10 of the molar value.

What follows are molecules tested against T1, human kinase Mps-1 (Homo sapiens, UniProt P33981) (assay: Mps-1 kinase assay (TR-FRET)). Conditions: N-terminally GST-tagged human full length recombinant Mps-1; 10 μM ATP; 1 μM peptide substrate; 15 min pre-incubation; 60 min at 22° C.
T1 construct: N-terminally GST-tagged human full length recombinant Mps-1 kinase; GST (N); purchased Invitrogen, Karslruhe, Germany PV4071
T1 sequence (P33981 1-857): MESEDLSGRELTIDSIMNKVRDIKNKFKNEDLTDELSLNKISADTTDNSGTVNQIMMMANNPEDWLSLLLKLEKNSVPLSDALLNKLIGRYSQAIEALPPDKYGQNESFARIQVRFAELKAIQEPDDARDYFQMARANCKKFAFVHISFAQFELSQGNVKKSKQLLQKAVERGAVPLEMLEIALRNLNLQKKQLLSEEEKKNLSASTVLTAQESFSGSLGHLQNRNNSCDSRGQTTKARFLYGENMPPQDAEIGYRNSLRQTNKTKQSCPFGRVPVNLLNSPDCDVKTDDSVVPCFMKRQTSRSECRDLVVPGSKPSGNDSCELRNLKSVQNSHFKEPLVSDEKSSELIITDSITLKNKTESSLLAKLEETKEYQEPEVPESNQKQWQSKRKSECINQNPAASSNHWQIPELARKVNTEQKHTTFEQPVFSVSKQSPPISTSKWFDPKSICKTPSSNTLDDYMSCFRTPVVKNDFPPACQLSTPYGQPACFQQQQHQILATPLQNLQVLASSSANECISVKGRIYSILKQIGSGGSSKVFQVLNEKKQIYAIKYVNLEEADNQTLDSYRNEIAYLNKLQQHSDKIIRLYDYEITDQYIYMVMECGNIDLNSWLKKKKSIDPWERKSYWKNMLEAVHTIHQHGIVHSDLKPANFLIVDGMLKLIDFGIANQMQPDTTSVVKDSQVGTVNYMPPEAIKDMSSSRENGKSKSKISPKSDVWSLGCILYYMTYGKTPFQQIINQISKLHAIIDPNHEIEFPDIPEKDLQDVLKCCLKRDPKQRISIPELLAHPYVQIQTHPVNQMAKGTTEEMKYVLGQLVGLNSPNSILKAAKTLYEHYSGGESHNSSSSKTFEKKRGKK
Type: biochemical
Description: The human kinase Mps-1 phosphorylates a biotinylated substrate peptide. Detection of the phosphorylated product is achieved by time-resolved fluorescence resonance energy transfer (TR-FRET) from Europium-labelled anti-phospho-Serine/Threonine antibody as donor to streptavidin labelled with cross-linked allophycocyanin (SA-XLent) as acceptor. Compounds are tested for their inhibition of the kinase activity.
N-terminally GST-tagged human full length recombinant Mps-1 kinase (purchased from Invitrogen, Karslruhe, Germany, cat. no PV4071) was used. As substrate for the kinase reaction a biotinylated peptide of the amino-acid sequence […] (C-terminus in amide form, purchased from Biosynthan GmbH, Berlin) was used.
The concentration of Mps-1 in the assay was adjusted to the activity of the enzyme lot and was chosen appropriate to have the assay in the linear range, typical enzyme concentrations were in the range of about 1 nM (final conc. in the 5 μl assay volume).
The resulting mixture was incubated 1 h at 22° C. to allow the binding of the phosphorylated peptide to the anti-phospho(Ser/Thr)-Europium-antibody. Subsequently the amount of phosphorylated substrate was evaluated by measurement of the resonance energy transfer from the Europium-labelled anti-phospho(Ser/Thr) antibody to the Streptavidin-XLent. Therefore, the fluorescence emissions at 620 nm and 665 nm after excitation at 350 nm was measured in a Viewlux TR-FRET reader (PerkinElmer LAS, Rodgau-Jügesheim, Germany). The “blank-corrected normalized ratio” (a Viewlux specific readout, similar to the traditional ratio of the emissions at 665 nm and at 622 nm, in which blank and Eu-donor crosstalk are subtracted from the 665 nm signal before the ratio is calculated) was taken as the measure for the amount of phosphorylated substrate.

Question: `CC(C)CNc1nc(-c2ccc(C(C)(C)C)cc2)cn2c(-c3ccc(C(=O)NC4CC4)cc3)cnc12` [Example 1-50, 4-{6-(4-tert-butylphenyl)-8-[(2-methylpropyl)amino]imidazo[1,2-a]pyrazin-3-yl}-N-cyclo-propylbenzamide] was tested. Which pIC50 did it give?
Answer: The pIC50 was 7.12.

Question: How did the pIC50 turn out when `CC(C)CNc1nc(-c2ccccc2F)cn2c(-c3ccc(C(=O)NC4CC4)cc3)cnc12` [Example 1-51, N-cyclopropyl-4-{6-(2-fluorophenyl)-8-[(2-methylpropyl)amino]imidazo[1,2-a]pyrazin-3-yl}benzamide] was run?
Answer: The pIC50 was 8.43.

Question: `CC(C)CNc1nc(-c2ccc(OC(F)(F)F)cc2)cn2c(-c3ccc(C(=O)NC4CC4)cc3)cnc12` [Example 1-52, N-cyclopropyl-4-{8-[(2-methylpropyl)amino]-6-[4-(trifluoromethoxy)phenyl]imidazo[1,2-a]pyrazin-3-yl}benzamide] was tested. Which pIC50 did it give?
Answer: The pIC50 was 7.50.

Question: With `CC(C)CNc1nc(-c2ccc(C(=O)Nc3ccccc3)cc2)cn2c(-c3ccc(C(=O)NC4CC4)cc3)cnc12` [Example 1-53, 4-{3-[4-(cyclopropyl-carbamoyl)phenyl]-8-[(2-methylpropyl)amino]imidazo[1,2-a]pyrazin-6-yl}-N-phenylbenzamide] as the molecule, how does the pIC50 read?
Answer: Its pIC50 is 8.68.

Question: `CC(C)CNc1nc(-c2cccc(C(=O)N3CCCC3)c2)cn2c(-c3ccc(C(=O)NC4CC4)cc3)cnc12` [Example 1-54, N-cyclopropyl-4-{8-[(2-methylpropyl)amino]-6-[3-(pyrrolidin-1-yl-carbonyl)phenyl]imidazo [1,2-a]pyrazin-3-yl} benzamide] was tested. Which pIC50 did it give?
Answer: Its pIC50 is 8.21.

Question: How did the pIC50 turn out when `CC(C)CNc1nc(-c2cccc(C(=O)NCc3ccccc3)c2)cn2c(-c3ccc(C(=O)NC4CC4)cc3)cnc12` [Example 1-55, N-benzyl-3-{3-[4-(cyclo-propylcarbamoyl)phenyl]-8-[(2-methylpropyl)amino]imidazo[1,2-a]pyrazin-6-yl}benzamide] was run?
Answer: Its pIC50 is 8.34.

Question: With `CC(C)CNc1nc(-c2cccc(C(=O)NC3CC3)c2)cn2c(-c3ccc(C(=O)NC4CC4)cc3)cnc12` [Example 1-56, N-cyclopropyl-3-{3-[4-(cyclopropylcarbamoyl)phenyl]-8-[(2-methylpropyl)amino]imidazo [1,2-a]pyrazin-6-yl} benzamide] as the molecule, how does the pIC50 read?
Answer: The pIC50 was 8.80.

Question: How did the pIC50 turn out when `CC(C)CNc1nc(-c2cccc(C(=O)Nc3ccccc3)c2)cn2c(-c3ccc(C(=O)NC4CC4)cc3)cnc12` [Example 1-57, 3-{3-[4-(cyclopropyl-carbamoyl)phenyl]-8-[(2-methylpropyl)amino]imidazo[1,2-a]pyrazin-6-yl}-N-phenylbenzamide] was run?
Answer: The pIC50 was 7.98.

Question: How did the pIC50 turn out when `CC(C)CNc1nc(-c2ccc(OC(C)C)cc2)cn2c(-c3ccc(C(=O)NC4CC4)cc3)cnc12` [Example 1-58, N-cyclopropyl-4-{8-[(2-methylpropyl)amino]-6-[4-(propan-2-yloxy)phenyl]imidazo[1,2-a]pyrazin-3-yl}benzamide] was run?
Answer: Its pIC50 is 7.57.

Question: How did the pIC50 turn out when `CC(C)CNc1nc(-c2ccc(C(C)C)cc2)cn2c(-c3ccc(C(=O)NC4CC4)cc3)cnc12` [Example 1-59, N-cyclopropyl-4-{8-[(2-methylpropyl)amino]-6-[4-(propan-2-yl)phenyl]imidazo[1,2-a]pyrazin-3-yl}benzamide] was run?
Answer: The pIC50 was 7.25.

Question: With `CC(C)CNc1nc(-c2cc(F)cc(F)c2)cn2c(-c3ccc(C(=O)NC4CC4)cc3)cnc12` [Example 1-60, N-cyclopropyl-4-{6-(3,5-difluorophenyl)-8-[(2-methylpropyl)amino]imidazo[1,2-a]pyrazin-3-yl}benzamide] as the molecule, how does the pIC50 read?
Answer: Its pIC50 is 7.37.

Question: `CC(C)CNc1nc(-c2ccc([N+](=O)[O-])cc2)cn2c(-c3ccc(C(=O)NC4CC4)cc3)cnc12` [Example 1-61, N-cyclopropyl-4-{8-[(2-methylpropyl)amino]-6-(4-nitrophenyl)imidazo [1,2-a]pyrazin-3-yl} benzamide] was tested. Which pIC50 did it give?
Answer: Its pIC50 is 8.70.

Question: How did the pIC50 turn out when `COc1ccc(-c2cn3c(-c4ccc(C(=O)NC5CC5)cc4)cnc3c(NCC(C)C)n2)cc1F` [Example 1-62, N-cyclopropyl-4-{6-(3-fluoro-4-methoxyphenyl)-8-[(2-methylpropyl)amino]imidazo[1,2-a]pyrazin-3-yl}benzamide] was run?
Answer: The pIC50 was 8.17.

Question: How did the pIC50 turn out when `CC(C)CNc1nc(-c2ccc(F)c(F)c2)cn2c(-c3ccc(C(=O)NC4CC4)cc3)cnc12` [Example 1-63, N-cyclopropyl-4-{6-(3,4-difluorophenyl)-8-[(2-methylpropyl)amino]imidazo[1,2-a]pyrazin-3-yl}benzamide] was run?
Answer: The pIC50 was 8.11.

Question: `CC(C)CNc1nc(-c2ccccc2Oc2ccccc2)cn2c(-c3ccc(C(=O)NC4CC4)cc3)cnc12` [Example 1-64, N-cyclopropyl-4-{8-[(2-methylpropyl)amino]-6-(2-phenoxyphenyl)imidazo[1,2-a]pyrazin-3-yl}benzamide] was tested. Which pIC50 did it give?
Answer: Its pIC50 is 7.13.

Question: How did the pIC50 turn out when `CC(C)CNc1nc(-c2ccccc2O)cn2c(-c3ccc(C(=O)NC4CC4)cc3)cnc12` [Example 1-65, N-cyclopropyl-4-{6-(2-hydroxyphenyl)-8-[(2-methylpropyl)amino]imidazo[1,2-a]pyrazin-3-yl}benzamide] was run?
Answer: Its pIC50 is 8.07.

Question: How did the pIC50 turn out when `CC(C)CNc1nc(-c2cccc(O)c2)cn2c(-c3ccc(C(=O)NC4CC4)cc3)cnc12` [Example 1-66, N-cyclopropyl-4-{6-(3-hydroxyphenyl)-8-[(2-methylpropyl)amino]imidazo[1,2-a]pyrazin-3-yl}benzamide] was run?
Answer: The pIC50 was 8.66.

Question: With `CC(C)CNc1nc(-c2ccc(O)cc2)cn2c(-c3ccc(C(=O)NC4CC4)cc3)cnc12` [Example 1-67, N-cyclopropyl-4-{6-(4-hydroxyphenyl)-8-[(2-methylpropyl)amino]imidazo[1,2-a]pyrazin-3-yl}benzamide] as the molecule, how does the pIC50 read?
Answer: The pIC50 was 8.46.

Question: With `COc1c(C)cc(-c2cn3c(-c4ccc(C(=O)NC5CC5)cc4)cnc3c(NCC(C)C)n2)cc1C` [Example 1-68, N-cyclopropyl-4-{6-(4-methoxy-3,5-dimethylphenyl)-8-[(2-methyl-propyl)amino]imidazo [1,2-a]pyrazin-3-yl} benzamide] as the molecule, how does the pIC50 read?
Answer: The pIC50 was 7.71.

Question: `CC(C)CNc1nc(-c2cccc(-c3ccccc3)c2)cn2c(-c3ccc(C(=O)NC4CC4)cc3)cnc12` [Example 1-69, 4-{6-(biphenyl-3-yl)-8-[(2-methylpropyl)amino]imidazo[1,2-a]pyrazin-3-yl}-N-cyclopropyl-benzamide] was tested. Which pIC50 did it give?
Answer: Its pIC50 is 7.70.

Question: `CSc1ccccc1-c1cn2c(-c3ccc(C(=O)NC4CC4)cc3)cnc2c(NCC(C)C)n1` [Example 1-70, N-cyclopropyl-4-{8-[(2-methylpropyl)amino]-6-[2-(methylsulfanyl)phenyl]imidazo[1,2-a]pyrazin-3-yl}benzamide] was tested. Which pIC50 did it give?
Answer: The pIC50 was 8.49.

Question: `COc1ccc(Cl)cc1-c1cn2c(-c3ccc(C(=O)NC4CC4)cc3)cnc2c(NCC(C)C)n1` [Example 1-71, 4-{6-(5-chloro-2-methoxy-phenyl)-8-[(2-methyl-propyl)amino]imidazo [1,2-a]pyrazin-3-yl}-N-cyclopropylbenzamide] was tested. Which pIC50 did it give?
Answer: Its pIC50 is 7.44.

Question: `CC(C)CNc1nc(-c2cccc(C#N)c2)cn2c(-c3ccc(C(=O)NC4CC4)cc3)cnc12` [Example 1-72, 4-{6-(3-cyanophenyl)-8-[(2-methylpropyl)amino]imidazo[1,2-a]pyrazin-3-yl}-N-cyclo-propylbenzamide] was tested. Which pIC50 did it give?
Answer: Its pIC50 is 8.34.

Question: With `CC(C)CNc1nc(-c2ccc(C#N)cc2)cn2c(-c3ccc(C(=O)NC4CC4)cc3)cnc12` [Example 1-73, 4-{6-(4-cyanophenyl)-8-[(2-methylpropyl)amino]imidazo[1,2-a]pyrazin-3-yl}-N-cyclo-propylbenzamide] as the molecule, how does the pIC50 read?
Answer: The pIC50 was 8.68.

Question: `CC(C)CNc1nc(-c2ccc3[nH]ccc3c2)cn2c(-c3ccc(C(=O)NC4CC4)cc3)cnc12` [Example 1-74, N-cyclopropyl-4-{6-(1H-indol-5-yl)-8-[(2-methyl-propyl)amino]imidazo [1,2-a]pyrazin-3-yl} benzamide] was tested. Which pIC50 did it give?
Answer: Its pIC50 is 7.42.
